Test results published in US11840686B2, “Modulation of prekallikrein (PKK) expression” (Ionis Pharmaceuticals, Inc., priority 2013, dated 2023).
Strand notation (5' to 3'): a small letter for the sugar, then the base; units joined by * are phosphorothioate-linked, units joined directly phosphodiester-linked; [ ] holds rarer units or linkages, { } end groups; capitals alone tell only the bases. e = 2'-O-(2-methoxyethyl) (MOE); [5mC] = 5-methylcytosine; d = 2'-deoxy (DNA)

Tested on: human PKK mRNA
Test: Antisense inhibition of human PKK mRNA in HepaRG cells, 5,000 nM (Example 2)
Format: cell-based
In short: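 qRT-PCR (RTS3454) read-out, RIBOGREEN-normalized; % inhibition vs untreated cells. HepaRG, 20,000 cells/well, electroporation, 5,000 nM ASO, ~24 h.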

[1] = HepaRG cells, electroporation, 5,000 nM antisense oligonucleotide, approx. 24 hours, primer probe set RTS3454, relative to untreated control cells, Table 12
[2] = HepaRG cells, 5,000 nM antisense oligonucleotide, 5-10-5 gapmers, Table 16
[3] = HepaRG cells, 5,000 nM antisense oligonucleotide, 5-10-5 gapmers, Table 17
[4] = Table 13, human PKK mRNA in HepaRG cells, 5-10-5 gapmers

Substance | % inhibition [4] | also measured
546508 (eG*e[5mC]*eA*eG*e[5mC]*dA*dA*dG*dT*dG*d[5mC]*dT*d[5mC]*d[5mC]*d[5mC]*e[5mC]*eA*eT*eG*e[5mC]; antisense) [compound 546508] |  | % inhibition [1]: 43%
546511 (eG*eT*eG*eA*eT*dG*dA*dA*dA*dG*dT*dA*d[5mC]*dA*dG*e[5mC]*eA*eG*e[5mC]*eA; antisense) [compound 546511] |  | % inhibition [1]: 50%
546529 (eG*e[5mC]*eA*e[5mC]*e[5mC]*dT*dG*dG*d[5mC]*dA*dG*dA*dA*d[5mC]*dA*eG*eT*eA*e[5mC]*e[5mC]; antisense) [compound 546529] |  | % inhibition [2]: 65%
546578 (eG*eA*e[5mC]*eA*eG*dT*dG*dG*dG*d[5mC]*d[5mC]*dA*dG*dA*dG*e[5mC]*e[5mC]*eT*eT*eG; antisense) [compound 546578] |  | % inhibition [2]: 73%
546599 (eA*eA*eG*eA*eG*dT*dA*dA*dG*d[5mC]*d[5mC]*dT*dT*d[5mC]*dA*e[5mC]*eA*eG*eG*eG; antisense) [compound 546599] |  | % inhibition [3]: 82%
546606 (e[5mC]*eT*e[5mC]*eA*e[5mC]*d[5mC]*dA*dG*dA*dG*dT*dT*dG*dT*d[5mC]*e[5mC]*e[5mC]*e[5mC]*eA*eG; antisense) [compound 546606] |  | % inhibition [3]: 0%
546683 (eT*e[5mC]*e[5mC]*eT*eA*dT*d[5mC]*d[5mC]*dG*dT*dG*dT*dT*d[5mC]*dA*eG*e[5mC]*eT*eG*eT; antisense) [compound 546683] |  | % inhibition [1]: 69%
546684 (eT*eA*e[5mC]*eT*e[5mC]*dT*d[5mC]*dT*dA*d[5mC]*dA*dT*dA*d[5mC]*dT*e[5mC]*eA*eG*eG*eA; antisense) [compound 546684] |  | % inhibition [1]: 71%
546687 (eT*eG*eA*eG*eA*d[5mC]*d[5mC]*dT*d[5mC]*d[5mC]*dA*dG*dA*d[5mC]*dT*eA*e[5mC]*eT*eG*eT; antisense) [compound 546687] |  | % inhibition [1]: 76%
546690 (e[5mC]*eT*e[5mC]*eT*eG*d[5mC]*dT*dG*dG*dT*dT*dT*dT*dA*dG*eA*e[5mC]*e[5mC]*eA*e[5mC]; antisense) [compound 546690] |  | % inhibition [1]: 44%
546695 (eG*eG*eG*eA*e[5mC]*dA*dA*dT*d[5mC]*dT*d[5mC]*d[5mC]*dA*d[5mC]*d[5mC]*e[5mC]*e[5mC]*e[5mC]*eG*eA; antisense) [compound 546695] |  | % inhibition [1]: 36%
546698 (eT*eG*e[5mC]*eA*eG*dA*dG*dT*dG*dT*d[5mC]*dA*dT*d[5mC]*dT*eG*e[5mC]*eG*eA*eA; antisense) [compound 546698] |  | % inhibition [1]: 59%
546700 (eT*eG*eG*eT*eT*d[5mC]*d[5mC]*d[5mC]*dT*dA*dG*d[5mC]*dG*dG*dT*e[5mC]*e[5mC]*eA*eG*eA; antisense) [compound 546700] |  | % inhibition [1]: 78%
546705 (e[5mC]*e[5mC]*e[5mC]*e[5mC]*eT*dG*dT*dA*dG*dT*dT*dG*dG*d[5mC]*dT*eG*eT*eG*eG*eT; antisense) [compound 546705] |  | % inhibition [1]: 66%
546707 (eG*e[5mC]*eA*eA*eG*dT*d[5mC]*dA*dA*dA*dG*dA*dG*dT*dG*eT*e[5mC]*e[5mC]*eA*e[5mC]; antisense) [compound 546707] |  | % inhibition [1]: 73%
546710 (eG*eA*eA*eG*e[5mC]*d[5mC]*dT*dG*dT*dT*dA*dG*dA*dG*dT*eT*eG*eG*e[5mC]*e[5mC]; antisense) [compound 546710] |  | % inhibition [1]: 73%
546719 (e[5mC]*e[5mC]*e[5mC]*e[5mC]*e[5mC]*dA*dT*dG*dT*d[5mC]*d[5mC]*dA*dT*dG*dG*eA*e[5mC]*eT*eT*eT; antisense) [compound 546719] |  | % inhibition [1]: 55%
546732 (eG*eG*eA*eT*eT*dT*dG*dG*d[5mC]*d[5mC]*d[5mC]*dT*dG*dA*dG*e[5mC]*e[5mC]*e[5mC]*e[5mC]*eA; antisense) [compound 546732] | 14% | 
546735 (e[5mC]*eA*eA*e[5mC]*e[5mC]*dT*dG*dT*d[5mC]*d[5mC]*dA*dT*dT*d[5mC]*d[5mC]*e[5mC]*eT*eG*eG*eG; antisense) [compound 546735] | 46% | 
546746 (eT*e[5mC]*e[5mC]*eT*eG*dT*dT*dG*d[5mC]*d[5mC]*dT*dG*dA*d[5mC]*dA*eT*eG*e[5mC]*eT*eA; antisense) [compound 546746] | 65% | 
546747 (e[5mC]*eT*e[5mC]*e[5mC]*e[5mC]*dA*d[5mC]*dT*dG*dA*d[5mC]*dT*dG*dA*d[5mC]*eT*eA*e[5mC]*eT*e[5mC]; antisense) [compound 546747] | 64% | 
546749 (eG*e[5mC]*eT*eG*eG*dT*d[5mC]*d[5mC]*dT*dT*dG*dA*dA*d[5mC]*d[5mC]*e[5mC]*e[5mC]*eG*eT*eG; antisense) [compound 546749] | 53% | 
546756 (eA*eT*eA*eA*eG*d[5mC]*dA*dT*d[5mC]*dT*d[5mC]*dT*d[5mC]*dT*dG*eA*e[5mC]*e[5mC]*eT*eA; antisense) [compound 546756] | 47% | 

Substance | % inhibition [4] | also measured
546763 (eG*e[5mC]*eT*eT*e[5mC]*d[5mC]*d[5mC]*d[5mC]*dA*dA*dT*dA*d[5mC]*dT*dT*eG*e[5mC]*eT*eG*eG; antisense) [compound 546763] | 84% | 
546765 (eG*eT*eG*eT*e[5mC]*d[5mC]*dA*dG*dA*dA*dT*dA*d[5mC]*dT*dG*e[5mC]*e[5mC]*e[5mC]*e[5mC]*eA; antisense) [compound 546765] | 82% | 
546770 (eG*eT*eG*eG*eA*d[5mC]*dG*dA*d[5mC]*dT*dG*d[5mC]*d[5mC]*d[5mC]*dT*eG*eT*eG*e[5mC]*e[5mC]; antisense) [compound 546770] | 74% | 
546773 (eT*e[5mC]*eT*e[5mC]*eT*dA*dG*d[5mC]*dA*dT*d[5mC]*d[5mC]*dT*dA*dG*eT*e[5mC]*e[5mC]*eT*e[5mC]; antisense) [compound 546773] | 67% | 
546780 (eA*eT*eA*e[5mC]*eT*dG*dG*d[5mC]*dT*dA*dA*dG*dT*d[5mC]*dA*eG*eG*e[5mC]*e[5mC]*e[5mC]; antisense) [compound 546780] | 83% | 
546784 (eG*eG*e[5mC]*eA*eG*dG*dG*dA*dG*dG*dT*dG*dG*dA*dT*eT*eA*eT*eT*e[5mC]; antisense) [compound 546784] | 58% | 
546789 (eG*e[5mC]*eT*eT*e[5mC]*dT*d[5mC]*dT*dA*dT*d[5mC]*dT*d[5mC]*d[5mC]*d[5mC]*eA*eG*eT*eG*eT; antisense) [compound 546789] | 79% | 
546791 (eG*eA*eT*eG*e[5mC]*dA*dT*dG*d[5mC]*dA*dG*d[5mC]*dA*dA*dT*eA*e[5mC]*eA*eG*eG; antisense) [compound 546791] | 52% | 
546795 (eG*eT*e[5mC]*eT*e[5mC]*dG*dA*dT*dG*dG*d[5mC]*dA*dA*dG*d[5mC]*eT*eG*eT*eA*e[5mC]; antisense) [compound 546795] | 72% | 
546796 (eG*eT*eA*e[5mC]*eT*d[5mC]*dA*d[5mC]*d[5mC]*dG*dG*dT*dA*d[5mC]*dT*e[5mC]*eT*eG*e[5mC]*e[5mC]; antisense) [compound 546796] | 82% | 
546799 (eA*eT*eG*eA*eA*dG*dG*dG*d[5mC]*dG*dA*dG*dG*d[5mC]*dG*e[5mC]*eA*eG*eT*eG; antisense) [compound 546799] | 5% | 
546803 (e[5mC]*e[5mC]*e[5mC]*e[5mC]*eA*dT*dA*d[5mC]*dA*dT*d[5mC]*dT*dA*dT*dG*e[5mC]*eA*eA*eA*eT; antisense) [compound 546803] | 40% | 
546804 (eA*e[5mC]*eA*eT*eG*dA*d[5mC]*dT*d[5mC]*d[5mC]*dA*dG*dT*dG*dA*eT*eG*eG*eA*eT; antisense) [compound 546804] | 57% | 
546808 (eA*eA*eA*eA*eT*dG*dA*d[5mC]*dA*d[5mC]*d[5mC]*dA*dA*dA*dA*eT*eT*e[5mC]*eG*e[5mC]; antisense) [compound 546808] | 0% | 
546811 (eT*eG*eG*eA*e[5mC]*dA*dT*d[5mC]*d[5mC]*dT*dT*d[5mC]*d[5mC]*d[5mC]*d[5mC]*eT*e[5mC]*eG*e[5mC]*eA; antisense) [compound 546811] | 49% | 
546817 (eG*e[5mC]*eT*e[5mC]*eT*dG*dA*dG*d[5mC]*d[5mC]*dT*dT*d[5mC]*d[5mC]*dG*e[5mC]*e[5mC]*eT*e[5mC]*eT; antisense) [compound 546817] | 77% | 
546822 (eA*e[5mC]*eT*eA*eG*dT*dT*dT*d[5mC]*d[5mC]*dT*dA*dT*dA*dA*e[5mC]*eT*eG*e[5mC]*eT; antisense) [compound 546822] | 32% | 
546823 (eT*eA*e[5mC]*eT*eA*dG*dT*dT*dT*d[5mC]*d[5mC]*dT*dA*dT*dA*eA*e[5mC]*eT*eG*e[5mC]; antisense) [compound 546823] | 44% | 
546824 (eG*eT*eA*e[5mC]*eT*dA*dG*dT*dT*dT*d[5mC]*d[5mC]*dT*dA*dT*eA*eA*e[5mC]*eT*eG; antisense) [compound 546824] | 79% | 
546830 (eT*eA*eA*e[5mC]*eA*dG*dT*dA*dT*d[5mC]*dA*d[5mC]*dT*dG*dT*eA*e[5mC]*eT*eA*eG; antisense) [compound 546830] | 78% | 
546831 (eT*e[5mC]*eT*eA*eA*d[5mC]*dA*dG*dT*dA*dT*d[5mC]*dA*d[5mC]*dT*eG*eT*eA*e[5mC]*eT; antisense) [compound 546831] | 79% | 
546836 (eA*eT*eA*eA*e[5mC]*dT*d[5mC]*dT*dA*dA*d[5mC]*dA*dG*dT*dA*eT*e[5mC]*eA*e[5mC]*eT; antisense) [compound 546836] | 30% | 
546837 (eT*eA*eT*eA*eA*d[5mC]*dT*d[5mC]*dT*dA*dA*d[5mC]*dA*dG*dT*eA*eT*e[5mC]*eA*e[5mC]; antisense) [compound 546837] | 0% | 
